Laboratory results from patent publication US20230068020A1, “MACROLIDE COMPOUND AND ITS USE OF TREATMENT CHRONIC RESPIRATORY DISEASE” (priority 2020, published 2023).
≈ marks a conversion by molar mass, not a printed value.

Legend:
[1] = tested on: IL-8 expression in BEAS-2B cell; experiment: LPS induced IL-8 release by BEAS-2B (ELISA); assay type: cell-based; settings: in words; BEAS-2B
Experimental: The inhibitory effect of compounds of Examples on the IL-8 expression in BEAS-2B cell was tested using the following method. BEAS-2B was purchased from ATCC (American Type Culture Collection, Manassas, Va.). Cells were maintained in growth medium (LHC-9) and cultured at 37° C. under 5% CO2. Compounds were dissolved in 0.1% DMSO. Erythromycin was used as a positive control.
For the assessment of the effect of compounds of Examples on IL-8 expression inhibition in BEAS-2B cell line, cells were plated in 24 well plate at a density of 100,000/mL, in a final volume of 1 mL of assay medium. Cells were incubated at 37° C., 5% CO2 for 1 day. After the incubation, compounds were added at day 2 and LPS was added at day 3. A compound source plate was prepared by triplicate five-point 10-fold or 2-fold serial dilutions in DMSO, beginning at 1 mM (final top concentration of compounds of Examples in the assay was 100 μM and the DMSO was 0.1%). The positive control consisted of cells treated with 100 μM erythromycin and negative control was consisted of 0.1% DMSO treated cells. LPS stock solution at 5 mg/mL was made by dissolving 10 mg of LPS powder into 2 mL of ddH2O and aliquoted to 100 μL per vial. Final concentration of LPS in the assay was […] by making 125-fold dilution of stock solution with medium.
Specific immunoreactivity for IL-8 in culture supernatants were measured by a commercially available ELISA kits (R&D Systems, Inc., Minneapolis, Minn.). Each sample was assayed in duplicates as recommended by the manufacture. The concentration of compounds of Examples inhibiting IL-8 production on BEAS-2B by 10% was estimated from a 4-parametric of the normalized dose response curve. (IC10)

[2] = tested on: Enterococcus faecalis ATCC 29212; experiment: Antibacterial activity, agar dilution MIC; assay type: cell-based; settings: ATCC29212, 20-24 hrs incubation, read-out: minimum inhibitory concentration MIC
In short: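 Strains are cultured overnight at 35° C, 5% CO2 in MHIIA, supplemented with 5% sheep blood for S. pneumoniae, then centrifuged and resuspended in PBS to 10^8 CFU.mL^−1. Compounds, serially halved from a 20 mg/ml DMSO stock, are tested by CLSI agar dilution; MICs are recorded after 20-24 hrs.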

MIC [2]: 1 µg/mL (≈ 1.36 µM)
SMILES: CC[C@H]1OC(=O)[C@H](C)[C@@H](O[C@H]2C[C@@](C)(OC)[C@@H](O)[C@H](C)O2)[C@H](C)[C@@H](O[C@@H]2O[C@H](C)C[C@H](N(C)C)[C@H]2O)[C@](C)(O)C[C@@H](C)C(=O)[C@H](C)[C@@H](O)[C@]1(C)O [Erythromycin, reference compound]
LPS-induced IL-8 release [1]: significantly inhibited
